Measured values from patent US20250205316A1, “COLLOIDAL FIBRIN NANOPARTICLE COMPOSITIONS AND USES” (NORTH CAROLINA STATE UNIVERSITY, priority 2023, published 2025).
Read-outs that look alike come from different tables or passages of the source.

Tests used:
HUVECs = test: HUVEC morphology and attachment on tazarotene-loaded thin films; format: cell-based, human
Description: The effects of tazarotene released from bulk fibrin gels on individual cellular morphology was determined through the low-density culture of HUVECs on thin films of loaded fibrin gels. Fibrin gels with varying concentrations of bulk tazarotene incorporated were allowed to polymerize between two clean glass coverslips for 1 hour, in order to form thin films. Thin films of 80 μL were made using 2 mg/ml human fibrinogen (Enzyme Research Laboratories), HEPES buffer (25 mM), and 0.5 U/ml human thrombin. Upon removal of one glass coverslip, the remaining glass and attached gel were placed within the well of a 12-well plate and rinsed with PBS. HUVECs (15,000 cells/well) were cultured for 16 hours, at which point they were fixed and stained. Images of cells were captured at 10× using an EVOS FL Auto Imaging System, with at least 5 images taken per thin film. In order to validate the nanoparticle release of tazarotene from FBNs, 80 μL FBN gel (330 M particles/mL) thin films were formed with different relative ratios of tazarotene-loaded to unloaded FBNs. All other elements of the procedure were the same.

HUVECs and HLFs = test: Microfluidic vasculogenesis assay with free tazarotene; format: cell-based, human
Description: The effects of tazarotene dosage on vascular network formation were investigated through the use of an established microfluidic vasculogenesis model (FIG. 12A). HUVECs and HLFs were embedded in 2 mg/mL human fibrin gels made 25 mM HEPES buffer and 0.5 U/mL thrombin. Media channels in the microdevice (FIG. 12A) were filled with HUVEC media supplemented with free tazarotene. Daily media changes and brightfield imaging were completed until cells were fixed with 4% paraformaldehyde at 1 week after seeding. Cells were permeabilized with 0.3% Triton X-100 (Sigma), immunostained with PEKAM-1 antibody (ThermoFisher), and stained with phalloidin (Invitrogen) and DAPI (Invitrogen) in order to visualize networks of both HUVECs and HLFs. Imaging was performed using a confocal microscope with a 10× objective. At least 3 devices were imaged for each experimental group and 3 images were taken per device. ImageJ was used to quantify vascular network characteristics (average segment length, average segment width, average number of branch points, and total endothelial area).

[1] = fibrin gel thin films bulk loaded with tazarotene, 16 hours

Structure (SMILES): CCOC(=O)c1ccc(C#Cc2ccc3c(c2)C(C)(C)CCS3)nc1 [tazarotene]
- concentration with the most cell spreading (HUVECs; [1]): 200 nM
- effect on cellular attachment (HUVECs; [1]): no significant effect
- cell circularity (HUVECs; with increasing concentrations): less circularity
- cell perimeter (HUVECs; with increasing concentrations): greater perimeter
- average network segment width (HUVECs and HLFs): 36±11 μm
- average segment length (HUVECs and HLFs; 20 nM free tazarotene, 1 week): 218±54 μm
- average network segment width (HUVECs and HLFs; 2 μM free tazarotene, 1 week): 23±4 μm
- average segment length (HUVECs and HLFs; 2 μM free tazarotene, 1 week): 226±40 μm
- endothelial network area (HUVECs and HLFs; 2 μM free tazarotene, 1 week): 130167±61886 μm^2
- endothelial network area (HUVECs and HLFs; 20 μM free tazarotene, 1 week): 206,763±51,803 μm^2
- average network segment width (HUVECs and HLFs; 200 μM free tazarotene, 1 week): 31±7 μm
- endothelial network area (HUVECs and HLFs; 200 μM free tazarotene, 1 week): 240,770±44,210 μm^2
- endothelial network area (HUVECs and HLFs; 2000 μM free tazarotene, 1 week): 230,087±51,803 μm^2
- branch points (HUVECs and HLFs; across tazarotene concentrations): No significant differences
